The record followed here is patent US10457703B2, “Bile acid derivatives as FXR/TGR5 agonists and methods of use thereof” (ENANTA PHARMACEUTICALS, INC., priority 2015, dated 2019).

Each structure is given as a SMILES string.

The test addresses human FXR (NR1H4) (Homo sapiens (Human), UniProt Q96RI1). Description: Human FXR (NR1H4) Assay (Gal4 promoter driven luciferase reporter, Indigo Bioscience kit).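 As to Efficacy (%): 100% equals the efficacy of CDCA; efficacy normalized to CDCA set as 100%.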 Type of test: cell-based. To be noted: for EC50: Human FXR (NR1H4) Assay, potency ranges; for Emax: read-out: Efficacy (%). The method, boiled down:
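CHO reporter cells expressing human FXR with an FXR-responsive luciferase reporter, treated with compound doses at 0.2% DMSO. Incubation lasted 22 h at 37 °C before luciferase detection reagent was added. Luminescence was then read.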

human FXR (NR1H4), sequence (Q96RI1 whole entry, the tested form may be a part): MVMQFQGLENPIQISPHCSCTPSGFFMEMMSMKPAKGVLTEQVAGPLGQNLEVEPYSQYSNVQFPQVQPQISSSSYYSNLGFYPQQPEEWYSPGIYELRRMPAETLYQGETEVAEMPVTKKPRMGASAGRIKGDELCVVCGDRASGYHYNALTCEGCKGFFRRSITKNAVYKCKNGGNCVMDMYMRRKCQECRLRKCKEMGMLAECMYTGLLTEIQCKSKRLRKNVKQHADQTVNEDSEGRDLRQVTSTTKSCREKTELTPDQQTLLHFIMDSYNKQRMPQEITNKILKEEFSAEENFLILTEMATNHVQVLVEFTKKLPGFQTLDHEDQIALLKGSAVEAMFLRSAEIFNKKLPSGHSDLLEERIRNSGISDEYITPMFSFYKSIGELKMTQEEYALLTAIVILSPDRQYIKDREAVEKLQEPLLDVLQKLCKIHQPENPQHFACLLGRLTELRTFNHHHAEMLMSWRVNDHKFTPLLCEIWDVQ

Turning to `CC[C@H]1[C@@H](O)[C@@H]2[C@H](CC[C@]3(C)[C@@H]([C@H](C)CCOC(=O)NS(=O)(=O)N4CCOCC4)CC[C@@H]23)[C@@]2(C)CC[C@@H](O)C[C@@H]12` [Example 59], the EC50 was < 100 nM and the Emax turned out to be 428%.

Regarding `CC[C@H]1[C@@H](O)[C@@H]2[C@H](CC[C@]3(C)[C@@H]([C@H](C)CCOC(=O)NS(=O)(=O)C4CCCC4)CC[C@@H]23)[C@@]2(C)CC[C@@H](O)C[C@@H]12` [Example 47], the EC50 is < 100 nM and the Emax was determined as 321%.

In the case of `CC[C@H]1[C@@H](O)[C@@H]2[C@H](CC[C@]3(C)[C@@H]([C@H](C)COC(=O)NS(=O)(=O)c4ccc(-n5cccn5)nc4)CC[C@@H]23)[C@@]2(C)CC[C@@H](O)C[C@@H]12` [Example 16], the EC50 was < 100 nM and the Emax stood at 187%.

Turning to `CC[C@H]1[C@@H](O)[C@@H]2[C@H](CC[C@]3(C)[C@@H]([C@H](C)CCOC(=O)N(C)C)CC[C@@H]23)[C@@]2(C)CC[C@@H](O)C[C@@H]12` [Example 129], the EC50 was 100 to 1000 nM and the Emax amounted to 323%.

As to `CC[C@H]1[C@@H](O)[C@@H]2[C@H](CC[C@]3(C)[C@@H]([C@H](C)CCOC(=O)NCc4ccccc4)CC[C@@H]23)[C@@]2(C)CC[C@@H](O)C[C@@H]12` [Example 125], the EC50 fell in the range of 100 to 1000 nM and the Emax is 305%.

Turning to `CC[C@H]1[C@@H](O)[C@@H]2[C@H](CC[C@]3(C)[C@@H]([C@H](C)COC(=O)NS(=O)(=O)c4ccc(N5CCOCC5)cc4)CC[C@@H]23)[C@@]2(C)CC[C@@H](O)C[C@@H]12` [Example 19], the EC50 was < 100 nM and the Emax is 219%.

For the compound `CC[C@H]1[C@@H](O)[C@@H]2[C@H](CC[C@]3(C)[C@@H]([C@H](C)COC(=O)NS(=O)(=O)c4ccc(-n5ccnc5)cc4)CC[C@@H]23)[C@@]2(C)CC[C@@H](O)C[C@@H]12` [Example 44-h], the EC50 lay within 100 to 1000 nM and the Emax is 194%.

In the case of `CC[C@H]1[C@@H](O)[C@@H]2[C@H](CC[C@]3(C)[C@@H]([C@H](C)CCOC(=O)NS(=O)(=O)c4ccccc4OC)CC[C@@H]23)[C@@]2(C)CC[C@@H](O)C[C@@H]12` [Example 84], the EC50 was < 100 nM and the Emax stood at 270%.
